Laboratory results as given in patent publication US9572786B2, “Use of capsiate or dihydrocapsidate” (Catholic University Industry Academy Cooperation Foundation, priority 2007, dated 2017).

How the values were obtained:
ERK = test: MAPK signaling after UV, Western blotting: ERK; format: cell-based, human; conditions: HaCaT cells; 10, 25, 50 μM; 30 minutes after UV irradiation
Method: Western blotting was performed in the same manner as in Example 2-1 in order to identify the factor that affects the COX-2 expression regulated by capsiate, except for treating the cells with capsiate at different concentrations (10 μM, 25 μM and 50 μM) prior to UV irradiation, and using rabbit anti-ERK antibody, rabbit anti-p-ERK antibody, rabbit anti-p38 antibody, rabbit anti-p-p38 antibody, rabbit anti-JNK antibody and rabbit anti-p-JNK antibody (cell signaling), and anti-rabbit IgG-HRP conjugation antibody (Zymed) as the secondary antibody, 30 minutes after UV irradiation.

TNF-α = test: UV-induced pro-inflammatory cytokine mRNA, RT-PCR: TNF-α; format: cell-based, human; conditions: HaCaT cells; 10, 25, 50 μM; UV 100 J/m^2; 4 hours
Method: 1×10^6 HaCaT cells were placed on a 100 mm Petri dish and cultured for 24 hours in DMEM containing 10% FBS. Subsequently, the cells were cultured for 24 hours in DMEM containing 1% FBS until starvation. Then, after treating with capsiate at different concentrations (10 μM, 25 μM, 50 μM) for 30 minutes, followed by washing 3 times with PBS, UV was irradiated at an intensity of 100 J/m^2 to induce the production of cytokines. Immediately after the UV irradiation, the cells were washed again with PBS and further cultured for 4 hours in DMEM containing 1% FBS, which was treated with capsiate at the same concentration as in the pre-treatment.
Then, the degree of mRNA expression for IL-6, IL-8 and TNF-α induced mainly in the skin by the UV irradiation was evaluated by RT-PCR in order to measure the inhibition effect against the pro-inflammatory cytokines.
RNAs were extracted from the cells of each test group using Trizol (Invitrogen, USA) and used as template for PCR (PTC-225 Peltier thermal cycler, MJ Research, USA) to prepare cDNAs for each test group. Using the resultant cDNAs as template, the degree of mRNA expression for IL-6, IL-8 and TNF-α was measured by RT-PCR (Roter Gene 6000 series, Corbett Research, Australia) using commercial IL-6, IL-8 and TNF-α primers. […]

hairless mouse (SKH-1) = test: UV-induced skin damage in hairless mouse (observation, hematoxylin-eosin staining); format: in vivo; conditions: 200 μL of 1 mM in acetone topically every 24 hours, UV 2.5 kJ/m^2 4 times
Method: (§1) In order to confirm the in vitro experiment result performed on the human keratinocyte HaCaT cells in an animal model, experiment was carried out as follows using hairless mouse (SKH-1). Test groups were as follows: non-treated group—treated with acetone only without UV irradiation; test group A—treated with 200 μL of 1 mM capsiate dissolved in acetone every 24 hours without UV irradiation; control group—treated with UV and acetone; test group B—treated with UV and 200 μL of 1 mM capsiate dissolved in acetone every 24 hours (Unspecified conditions are the same as in Examples 5-7.).
(§2) Capsiate was applied on the back of the mouse. 1 hour later, UV was irradiated at an intensity of 2.5 kJ/m^2. 1 hour later, capsiate was applied again at the same concentration in order to prevent rash which may occur immediately after UV irradiation. Thereafter, capsiate was applied every 24 hours and UV irradiation was carried out every other day at an intensity of 2.5 kJ/m^2 for 4 times. In order to investigate the change of tissue and intracellular mechanism (signaling), the mouse was euthanized 1 hour after the final UV irradiation. Skin tissue was taken from the back of the mouse and subjected to skin biopsy following observation.
Hematoxylin-eosin staining was carried out in order to investigate the overall change in the skin tissue.

COX-2 = test: UV-induced COX-2 expression in mouse skin tissue, Western blotting; format: in vivo; conditions: hairless mouse; 200 μL of 1 mM topically; 4 times of UV irradiation
Method: as §1, §2
In the foregoing, it was confirmed that capsiate suppress inflammatory response, angiogenesis, edema, etc. caused by the UV-induced skin damage. […]

## COc1cc(COC(=O)CCCC/C=C/C(C)C)ccc1O [capsiate]
ERK
  phosphorylation of ERK: inhibited
TNF-α
  expression of TNF-α (mRNA) increased by UV irradiation: significantly decreases
Hairless mouse (SKH-1)
  blood vessels and edema (hematoxylin-eosin staining): also decreased
  hyperplasia in the epidermis (hematoxylin-eosin staining): decreased remarkably
Hairless mouse (SKH-1); vs UV control
  blood vessel thickness and blood in back skin tissue: less blood vessel thickness and less blood
  size and depth of wound induced by UV irradiation: less severe
COX-2
  expression of COX-2 induced in mouse skin tissue (Western blotting): remarkably decreased
